Source: patent publication US20220152117A1, “METHODS OF PROMOTING CELLULAR MATURATION WITH AMPK ACTIVATORS” (UNIVERSITY OF WASHINGTON, priority 2019, published 2022)
Entries after “also recorded” stand apart in the source; their conditions may differ.

Experiments:
[1] = test system: neurons derived from an FAD patient cell line harboring a duplication of the APP gene; test: Secreted amyloid beta peptides in neuronal culture media by ELISA; format: cell-based, human; settings: three-week neuronal differentiation, at each week
Protocol: Undifferentiated human IMR90-induced pluripotent stem cells, originally derived from lung fibroblasts^22 (James A. Thomson, University of Wisconsin-Madison), were expanded using mouse embryonic fibroblast-conditioned medium supplemented with 5 ng/ml basic fibroblast growth factor. Cardiomyocytes were obtained using a previously described protocol^2 that involves the serial application of activin A and bone morphogenetic protein-4 (BMP4) under serum-free, monolayer culture conditions. The cultures were also supplemented with the Wnt agonist CHIR99021 in the early stages of differentiation followed by the Wnt antagonist Xav939. In this study, cardiomyocytes derived from human undifferentiated IMR90-induced stem cells were used, and for brevity, these are referred to human induced pluripotent stem cell-derived cardiomyocytes (hiPSC-CM). After 20 days of in vitro differentiation, the cells were dispersed using 0.05% trypsin-EDTA and re-plated. Cultures were fed every other day thereafter with serum-free RPMI-B27 plus insulin. Only cell preparations containing >80% cardiac troponin T-positive cardiomyocytes (by flow cytometry) were used for the current investigation. […]
Secreted Amyloid beta (Ab) peptides were measured from the neuronal culture media at one, two and three-week time points after AICAR treatment by ELISA assay (Meso Scale Discovery®).

[2] = test system: hiPS-HLCs; test: RT-PCR of hepatic and mitochondrial-related genes in hepatocyte-like cells; format: cell-based, human
Protocol: Undifferentiated human IMR90-induced pluripotent stem cells, originally derived from lung fibroblasts^22 (James A. Thomson, University of Wisconsin-Madison), were expanded using mouse embryonic fibroblast-conditioned medium supplemented with 5 ng/ml basic fibroblast growth factor. Cardiomyocytes were obtained using a previously described protocol^2 that involves the serial application of activin A and bone morphogenetic protein-4 (BMP4) under serum-free, monolayer culture conditions. The cultures were also supplemented with the Wnt agonist CHIR99021 in the early stages of differentiation followed by the Wnt antagonist Xav939. In this study, cardiomyocytes derived from human undifferentiated IMR90-induced stem cells were used, and for brevity, these are referred to human induced pluripotent stem cell-derived cardiomyocytes (hiPSC-CM). After 20 days of in vitro differentiation, the cells were dispersed using 0.05% trypsin-EDTA and re-plated. Cultures were fed every other day thereafter with serum-free RPMI-B27 plus insulin. Only cell preparations containing >80% cardiac troponin T-positive cardiomyocytes (by flow cytometry) were used for the current investigation. Twenty days after induction, cells were re-plated at different densities based on experimental purposes (described below). Cells were treated with 1 mM AICAR for two weeks (unless otherwise mentioned specifically), with media being changed every other day. This study was mainly performed with cardiomyocytes-derived from IMR90 iPS cell line. However, cardiomyocytes-derived from another iPS cell line, WTC11 iPS cells^22, and a human embryonic stem cell line (hESC), RUES2 cells, were also used for some of the experiments. Rues and WTC undifferentiated cells were cultured with mTeSR medium. Similar differentiation protocols as to IMR90 were used to obtain cardiomyocytes from Rues and WTC cells. Only cell preparations containing >80% cardiac troponin T-positive cardiomyocytes (by flow cytometry) were used for the current investigation. Undifferentiated iPSCs were maintained on StemAdhere™ (Primorigin Biosciences®) with mTesR medium supplemented with bFGF. The formation of hepatocyte-like cells from iPSCs was achieved as described previously^24,25. Briefly, cells were induced to form endoderm by addition of 100 ng/ml Activin A, 10 ng/ml BMP4, and 20 ng/ml FGF2 for two days followed by 100 ng/ml Activin A for an additional three days. Hepatic progenitor cells were formed by supplementing the medium with 20 ng/ml BMP4 and 10 ng/ml FGF2. Next, 20 ng/ml HGF was added between days 10 and 15 and induced maturation of the hepatocytes by culturing the cells in HCM medium (Lonza®) containing 20 ng/ml Oncostatin M until day 20. In some experiments, the differentiation medium was supplemented with 1.0 mM AICAR between days 15 and 20. hiPSC-derived neurons were generated following previously published protocols^26, 27, 28. Briefly, hiPSCs from a control individual^28 and from a patient with the duplication of the amyloid precursor protein (APP) gene^27 were cultured on mouse embryonic fibroblasts in the presence of 20 ng/ml bFGF (Peprotech®). Neural stem cells were generated by hiPSC co-culture on the mouse stromal cell line PA6 in the presence of 0.5 ug/ml Noggin (Peprotech®) and 10 uM SB431542 (Peprotech®). After 12 days, neural rosettes were dissociated and FACS sorted for the cell surface markers CD184/CD24^+; CD44/CD271^−. Neural stem cells were propagated in 20 ng/ml bFGF and neuronal differentiation was induced by the withdrawal of bFGF and the addition of 20 ng/ml BDNF (Peprotech®), 20 ng/ml GDNF (Peprotech®), […] dbCAMP (Peprotech®).
Total RNA was isolated using the Qiagen RNeasy Kit™, and mRNA was reverse transcribed using the Superscript™ III first strand cDNA synthesis kit (Invitrogen®). All primers were purchased from Real Time Primers, and qRT-PCR was performed using SYBR™ green chemistry and an ABI 7900HT instrument or TAQMAN™ with BIORad CXF384™. […]

[3] = test system: L6 myotube; settings: literature study (ref 44); cited from earlier work
[4] = HLCs treated at day 20 with 1 mM AICAR for additional seven days

NC(=O)c1ncn([C@@H]2O[C@H](CO)[C@@H](O)[C@H]2O)c1N [AICAR, 5-amino-4-imidazolecarboxamide riboside-1-β-D-ribofuranoside]
levels of secreted Ab1-40 peptides [1]: significantly reduced
levels of secreted Ab1-42 peptides [1]: significantly reduced
HNF4α expression, treatment day 15 to 17 ([2]; 1 mM AICAR day 15 to 17): significantly down-regulated
other mature hepatic-related genes (SLC10A1, APOH, ASGR, APOB, and PXR) ([2]; 1 mM AICAR day 15 to 17): no significant difference
AFP expression, treatment day 15 to 17 ([2]; 1 mM AICAR day 15 to 17, endpoint day 20): diminished; also recorded: significantly reduced
ALB expression, treatment day 15 to 17 ([2]; 1 mM AICAR day 15 to 17, endpoint day 20, b310 calls the change non-significant): enhanced
ALB expression, longer treatment ([2]; 1 mM AICAR, longer treatment between days 15 and 20, endpoint day 20): adversely affected
PDK4 expression in HLCs [2, 4]: significantly increased
PGC1α, ERRa, PPARα, TFAM and HNF4α expression in HLCs [2, 4]: no significant effect
ERK phosphorylation in L6 myotube [3]: leads to ERK phosphorylation
